System: moderate-to-severe chronic spontaneous urticaria (CSU)
Assay: Phase 2 CSU study: urticaria activity score over 7 days (UAS7)
Format: in vivo, human
Set-up: key to UAS7 Median / UAS7 Change from baseline Median / UAS7 change from baseline, Q1 / UAS7 change from baseline, Q3 / UAS7 change from baseline, Max / UAS7 Change from baseline LS Mean (SE): UAS7 points; daily UAS score ranges 0–6 points/day, over 7 days
Details: for UAS7 Change from baseline LS Mean (SE) / UAS7 Post-baseline Mean (SD) / UAS7 % Change difference for rilzabrutinib vs. placebo LS Mean (95% CI) / UAS7 % Change from baseline LS Mean (SE) / UAS7 Change difference for rilzabrutinib vs. placebo LS Mean (95% CI): ITT population, 400 mg TID; for Imputed non-responder n (%), UAS7 = 0 / Imputed non-responder n (%), UAS7 ≤6 / Non-responder n (%), UAS7 = 0 / Non-responder n (%), UAS7 ≤6 / OR for rilzabrutinib vs. placebo, UAS7 = 0 / OR for rilzabrutinib vs. placebo, UAS7 ≤6 / RRD (%) for rilzabrutinib vs. placebo, UAS7 = 0 / RRD (%) for rilzabrutinib vs. placebo, UAS7 ≤6 / Responder n (%), UAS7 = 0 / Responder n (%), UAS7 ≤6: ITT, 400 mg BID
From the text: The study comprises a 12 week, randomized, double-blind, placebo-controlled, multi-center, dose-ranging efficacy and safety phase, followed by a 40 week open label extension (OLE) phase (see FIG. 1). The study consists of three phases and an optional OLE phase. […] Clinically, CSU is characterized by the spontaneous and recurrent appearance of pruritic hives. The proposed primary endpoints were the UAS7 at Week 12 in EU and EU reference countries and the ISS7 in the US. Regardless of where a participant was from, all assessments were the same. The UAS7 score is a composite score containing both the HSS7 and the ISS7. This allowed a global assessment of the two key components of urticaria: hives and itch. […] The UAS is a validated PRO measure. […] The daily UAS scores range from 0 to 6 point/day. […] Patients were to complete the UAS using the e-diary. […] The following secondary endpoints were to be analyzed using the same approach as for the primary endpoint: • Change from baseline in UAS7 at Week 4 • Change from baseline in UAS7 at Week 12 (for US and US reference countries) • Change from baseline in ISS7 at Week 12 (except US and US reference countries) • Change from baseline in HSS7 at Week 12 The following responder secondary endpoints were to be analyzed using the Cochran-Mantel-Haenszel test adjusted by region: • Proportion of participants with UAS7<6 at Week 12 • Proportion of participants with UAS7=0 at Week 12 Participants who received selected prohibited medications and/or rescue medications were to be considered as non-responders for time points after the medication usage. For other participants, all available data including those collected during the off-treatment period were to be used to determine the responder/non-responder status. Missing data were to be considered as non-responders.

CC(C)(C=C(C#N)C(=O)N1CCC[C@@H](n2nc(-c3ccc(Oc4ccccc4)cc3F)c3c(N)ncnc32)C1)N1CCN(C2COC2)CC1 [rilzabrutinib, (R)-2-[3-[4-amino-3-(2-fluoro-4-phenoxy-phenyl)pyrazolo[3,4-d]pyrimidin-1-yl]piperidine-1-carbonyl]-4-methyl-4-[4-(oxetan-3-yl)piperazin-1-yl]pent-2-enenitrile]
UAS7 Change from baseline LS Mean (SE) (Week 5): −16.68 | UAS7 Post-baseline Mean (SD) (Week 5): 12.72 (10.63) | UAS7 % Change difference for rilzabrutinib vs. placebo LS Mean (95% CI) (Week 6): −27.22% | UAS7 % Change from baseline LS Mean (SE) (Week 6): −54.12% | UAS7 Change difference for rilzabrutinib vs. placebo LS Mean (95% CI) (Week 6): −7.54 | UAS7 Change from baseline LS Mean (SE) (Week 6): −16.68 | UAS7 Post-baseline Mean (SD) (Week 6): 12.95 (11.42) | UAS7 % Change difference for rilzabrutinib vs. placebo LS Mean (95% CI) (Week 7): −25.60% | UAS7 % Change from baseline LS Mean (SE) (Week 7): −52.94% | UAS7 Change difference for rilzabrutinib vs. placebo LS Mean (95% CI) (Week 7): −7.30 | UAS7 Change from baseline LS Mean (SE) (Week 7): −16.36 | UAS7 Post-baseline Mean (SD) (Week 7): 13.31 (9.35) | UAS7 % Change difference for rilzabrutinib vs. placebo LS Mean (95% CI) (Week 8): −22.78% | UAS7 % Change from baseline LS Mean (SE) (Week 8): −54.62% | UAS7 Change difference for rilzabrutinib vs. placebo LS Mean (95% CI) (Week 8): −6.17 | UAS7 Change from baseline LS Mean (SE) (Week 8): −16.52 | UAS7 Post-baseline Mean (SD) (Week 8): 12.33 (10.15) | UAS7 % Change difference for rilzabrutinib vs. placebo LS Mean (95% CI) (Week 9): −26.48% | UAS7 % Change from baseline LS Mean (SE) (Week 9): −54.53% | UAS7 Change difference for rilzabrutinib vs. placebo LS Mean (95% CI) (Week 9): −7.09 | UAS7 Change from baseline LS Mean (SE) (Week 9): −16.69 | UAS7 Post-baseline Mean (SD) (Week 9): 11.76 (9.95) | UAS7 % Change difference for rilzabrutinib vs. placebo LS Mean (95% CI) (Week 10): −23.22% | UAS7 % Change from baseline LS Mean (SE) (Week 10): −56.75% | UAS7 Change difference for rilzabrutinib vs. placebo LS Mean (95% CI) (Week 10): −6.30 | UAS7 Change from baseline LS Mean (SE) (Week 10): −17.20 | UAS7 Post-baseline Mean (SD) (Week 10): 11.82 (10.15) | UAS7 % Change difference for rilzabrutinib vs. placebo LS Mean (95% CI) (Week 11): −25.03% | UAS7 % Change from baseline LS Mean (SE) (Week 11): −55.80% | UAS7 Change difference for rilzabrutinib vs. placebo LS Mean (95% CI) (Week 11): −6.74 | UAS7 Change from baseline LS Mean (SE) (Week 11): −17.15 | UAS7 Post-baseline Mean (SD) (Week 11): 12.17 (10.81) | Imputed non-responder n (%), UAS7 = 0 (Week 1): 1 (2.4) n (%) | Imputed non-responder n (%), UAS7 ≤6 (Week 1): 1 (2.4) n (%) | Non-responder n (%), UAS7 = 0 (Week 1): 38 (92.7) n (%) | Non-responder n (%), UAS7 ≤6 (Week 1): 34 (82.9) n (%) | OR for rilzabrutinib vs. placebo, UAS7 = 0 (Week 1): 3.132 | OR for rilzabrutinib vs. placebo, UAS7 ≤6 (Week 1): 3.469 | RRD (%) for rilzabrutinib vs. placebo, UAS7 = 0 (Week 1): 4.7 % | RRD (%) for rilzabrutinib vs. placebo, UAS7 ≤6 (Week 1): 10.3 % | Responder n (%), UAS7 = 0 (Week 1): 3 (7.3) n (%) | Responder n (%), UAS7 ≤6 (Week 1): 7 (17.1) n (%) | Imputed non-responder n (%), UAS7 = 0 (Week 2): 2 (4.9) n (%) | Imputed non-responder n (%), UAS7 ≤6 (Week 2): 2 (4.9) n (%) | Non-responder n (%), UAS7 = 0 (Week 2): 38 (92.7) n (%) | Non-responder n (%), UAS7 ≤6 (Week 2): 35 (85.4) n (%) | OR for rilzabrutinib vs. placebo, UAS7 = 0 (Week 2): 2.893 | OR for rilzabrutinib vs. placebo, UAS7 ≤6 (Week 2): 2.834 | RRD (%) for rilzabrutinib vs. placebo, UAS7 = 0 (Week 2): 4.2 % | RRD (%) for rilzabrutinib vs. placebo, UAS7 ≤6 (Week 2): 7.7 % | Responder n (%), UAS7 = 0 (Week 2): 3 (7.3) n (%) | Responder n (%), UAS7 ≤6 (Week 2): 6 (14.6) n (%) | Imputed non-responder n (%), UAS7 = 0 (Week 3): 1 (2.4) n (%) | Imputed non-responder n (%), UAS7 ≤6 (Week 3): 1 (2.4) n (%) | Non-responder n (%), UAS7 = 0 (Week 3): 37 (90.2) n (%) | Non-responder n (%), UAS7 ≤6 (Week 3): 31 (75.6) n (%) | OR for rilzabrutinib vs. placebo, UAS7 = 0 (Week 3): 3.857 | OR for rilzabrutinib vs. placebo, UAS7 ≤6 (Week 3): 2.554 | RRD (%) for rilzabrutinib vs. placebo, UAS7 = 0 (Week 3): 6.3 % | Responder n (%), UAS7 = 0 (Week 3): 4 (9.8) n (%) | Responder n (%), UAS7 ≤6 (Week 3): 10 (24.4) n (%) | Imputed non-responder n (%), UAS7 = 0 (Week 4): 4 (9.8) n (%) | Imputed non-responder n (%), UAS7 ≤6 (Week 4): 4 (9.8) n (%) | Non-responder n (%), UAS7 = 0 (Week 4): 38 (92.7) n (%) | Non-responder n (%), UAS7 ≤6 (Week 4): 28 (68.3) n (%) | OR for rilzabrutinib vs. placebo, UAS7 = 0 (Week 4): 1.278

Reference: patent US20260256792A1, “TREATMENT OF CHRONIC SPONTANEOUS URTICARIA BY ADMINISTERING (R)-2-[3-[4-AMINO-3-(2-FLUORO-4-PHENOXY-PHENYL)PYRAZOLO[3,4-D]PYRIMIDIN-1-YL]PIPERIDINE-1-CARBONYL]-4-METHYL-4-[4-(OXETAN-3-YL)PIPERAZIN-1-YL]PENT-2-ENENITRILE” (priority 2023, published 2026)
